Data taken from ChEMBL document CHEMBL6103628, “Structural Optimization of Covalent Inhibitors for Deubiquitinase ChlaDUB1 of Chlamydia trachomatis as Antibiotic Agents” (J Med Chem, 2025).

Target: T1, Deubiquitinase and deneddylase Dub1 (Chlamydia trachomatis serovar L2 (strain ATCC VR-902B / DSM 19102 /434/Bu)) (UniProt B0B9A0)
T1 sequence (whole entry): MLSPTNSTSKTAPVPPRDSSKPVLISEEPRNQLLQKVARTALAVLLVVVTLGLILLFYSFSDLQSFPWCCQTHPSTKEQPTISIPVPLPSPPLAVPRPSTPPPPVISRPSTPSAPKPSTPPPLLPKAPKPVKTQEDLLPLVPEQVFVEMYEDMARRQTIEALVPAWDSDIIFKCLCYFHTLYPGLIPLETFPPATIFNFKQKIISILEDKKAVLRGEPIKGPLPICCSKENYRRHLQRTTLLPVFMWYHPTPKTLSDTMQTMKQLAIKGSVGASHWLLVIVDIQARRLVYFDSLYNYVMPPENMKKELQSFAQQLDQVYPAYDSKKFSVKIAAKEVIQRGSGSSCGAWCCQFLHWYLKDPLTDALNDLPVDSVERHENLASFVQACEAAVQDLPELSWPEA
Assay: Inhibition of recombinant Chlamydia trachomatis DUB1 (130 to 401 residues) using Ub-Rh110Gly as fluorogenic substrate at highest concentration incubated for 60 to 360 mins by enzymatic analysis
Details: time 60-360 min; call rule not given here

For `N#Cc1nccc(C(=O)NCc2nn(C(=O)Cc3ccccc3)c3ccccc23)n1`, the inhibition was “Active; Complete Inhibition Not Observed”.
